This passage reports inhibition results from patent US9416128B2, “Fused heterocyclic compounds as ion channel modulators” (Gilead Sciences, Inc., priority 2013, dated 2016).

Like-named read-outs stand apart in the source and are kept apart here.

The target in assay [1] is wild-type human cardiac sodium channel, hNaV 1.5 (Late INa) (Homo sapiens, UniProt Q14524). Nature of the assay: Late INa screening assay (whole cell patch clamp, QPatch, Tefluthrin-induced late current). The format is cell-based. The settings on record: HEK293, % inhibition (percent block of late INa) at 1 uM; HEK293 hNaV1.5; 10 μM Tefluthrin; read-out: Nav1.5 Late INa 1 uM. Summed up: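 HEK293 cells stably expressing hNaV1.5 without beta subunits, whole-cell patch clamp at 23-25° C; late current induced by 10 μM Tefluthrin, measured 240-265 ms into 250 ms steps to −20 mV from −120 mV at 0.1 Hz. Compounds typically 0.3 or 1 μM, three additions over 5 min; percent block normalized to 0Na baseline with rundown correction.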

Assay [2] deals with wild-type human cardiac sodium channel, hNaV 1.5 (Peak INa) (Homo sapiens, UniProt Q14524). Nature of the assay: Peak INa screening assay (tonic block and use-dependent block). It is filed as cell-based. Here is the method:
The assay uses an HEK293 (human embryonic kidney) cell line heterologously expressing the wild-type human cardiac sodium channel, hNaV 1.5, purchased from Millipore (Billerica, Mass.). No beta subunits were coexpressed with the Na channel alpha subunit. Cells are maintained with standard tissue culture procedures and stable channel expression is maintained with 400 μg/mL Geneticin in the culture medium. […] Currents are digitized at 25 kHz and low-pass filtered at 5 kHz and stored in the Sophion Bioscience Oracle database (Sophion Bioscience, Copenhagen, Denmark). Analysis is performed using QPatch Assay software and data are compiled in Excel 2010 (Microsoft, Seattle, Wash., U.S.A.). Compound stocks are routinely made by the Gilead Sample Bank in vials to 10 mM in dimethyl sulfoxide (DMSO). In some cases, when compounds are not soluble in DMSO, they are made in 100% ethanol. Stocks are sonicated as necessary. The extracellular solution for screening Late INa is composed of: 140 mM NaCl, 4 mM KCl, 1.8 mM CaCl2, 1 mM MgCl2, 10 mM HEPES and 10 mM Dextrose with pH adjusted to 7.35 using NaOH. The intracellular solution contains: 105 mM CsF, 20 mM CsCl, 10 NaF, 2 mM EGTA, 10 mM HEPES and 10 mM Dextrose with pH adjusted to 7.35 with CsOH. Compounds are diluted in extracellular solution using a MicroLab Nimbus (Hamilton Robotics, Reno, Nev.) to between 0.3 and 3 μM in glass vials and transferred to glass well plates before robotic addition to the cells. […] It is contemplated that the compounds of Formula I avoid significant block of peak INa. […] The intracellular solution used for the Peak INa assay is the same as outlined for the Late INa assay (see above). After establishing the whole cell recording configuration, channels were stimulated to open with low frequency (0.1 Hz) for so that the recording can be monitored and the extent to which the recording has stabilized can be assessed. The test compound is then applied at 1 or 3 μM was added 2 times at 60 second intervals. After the second compound addition, a 200 second wait period was imposed to allow for equilibration. Voltage protocols for TB and UDB are were performed in the absence and presence of compound and TB and UDB are calculated with respect to the compound free condition. Both TB and UDB were analyzed by incorporating rundown correction for the peak INa.

The mark [3] stands for this setting: % inhibition, use-dependent block of peak INa at 3 uM, 3 Hz, pulse 50, read-out: Nav1.5 Peak UDB 3 Hz 3 uM.
Where [4] appears, read: read-out: Nav1.5 Peak TB 3 uM, % inhibition, tonic block of peak INa at 3 uM, 0.1 Hz, holding -100 mV.

Sequence of wild-type human cardiac sodium channel, hNaV 1.5 (Late INa) (Q14524 whole entry): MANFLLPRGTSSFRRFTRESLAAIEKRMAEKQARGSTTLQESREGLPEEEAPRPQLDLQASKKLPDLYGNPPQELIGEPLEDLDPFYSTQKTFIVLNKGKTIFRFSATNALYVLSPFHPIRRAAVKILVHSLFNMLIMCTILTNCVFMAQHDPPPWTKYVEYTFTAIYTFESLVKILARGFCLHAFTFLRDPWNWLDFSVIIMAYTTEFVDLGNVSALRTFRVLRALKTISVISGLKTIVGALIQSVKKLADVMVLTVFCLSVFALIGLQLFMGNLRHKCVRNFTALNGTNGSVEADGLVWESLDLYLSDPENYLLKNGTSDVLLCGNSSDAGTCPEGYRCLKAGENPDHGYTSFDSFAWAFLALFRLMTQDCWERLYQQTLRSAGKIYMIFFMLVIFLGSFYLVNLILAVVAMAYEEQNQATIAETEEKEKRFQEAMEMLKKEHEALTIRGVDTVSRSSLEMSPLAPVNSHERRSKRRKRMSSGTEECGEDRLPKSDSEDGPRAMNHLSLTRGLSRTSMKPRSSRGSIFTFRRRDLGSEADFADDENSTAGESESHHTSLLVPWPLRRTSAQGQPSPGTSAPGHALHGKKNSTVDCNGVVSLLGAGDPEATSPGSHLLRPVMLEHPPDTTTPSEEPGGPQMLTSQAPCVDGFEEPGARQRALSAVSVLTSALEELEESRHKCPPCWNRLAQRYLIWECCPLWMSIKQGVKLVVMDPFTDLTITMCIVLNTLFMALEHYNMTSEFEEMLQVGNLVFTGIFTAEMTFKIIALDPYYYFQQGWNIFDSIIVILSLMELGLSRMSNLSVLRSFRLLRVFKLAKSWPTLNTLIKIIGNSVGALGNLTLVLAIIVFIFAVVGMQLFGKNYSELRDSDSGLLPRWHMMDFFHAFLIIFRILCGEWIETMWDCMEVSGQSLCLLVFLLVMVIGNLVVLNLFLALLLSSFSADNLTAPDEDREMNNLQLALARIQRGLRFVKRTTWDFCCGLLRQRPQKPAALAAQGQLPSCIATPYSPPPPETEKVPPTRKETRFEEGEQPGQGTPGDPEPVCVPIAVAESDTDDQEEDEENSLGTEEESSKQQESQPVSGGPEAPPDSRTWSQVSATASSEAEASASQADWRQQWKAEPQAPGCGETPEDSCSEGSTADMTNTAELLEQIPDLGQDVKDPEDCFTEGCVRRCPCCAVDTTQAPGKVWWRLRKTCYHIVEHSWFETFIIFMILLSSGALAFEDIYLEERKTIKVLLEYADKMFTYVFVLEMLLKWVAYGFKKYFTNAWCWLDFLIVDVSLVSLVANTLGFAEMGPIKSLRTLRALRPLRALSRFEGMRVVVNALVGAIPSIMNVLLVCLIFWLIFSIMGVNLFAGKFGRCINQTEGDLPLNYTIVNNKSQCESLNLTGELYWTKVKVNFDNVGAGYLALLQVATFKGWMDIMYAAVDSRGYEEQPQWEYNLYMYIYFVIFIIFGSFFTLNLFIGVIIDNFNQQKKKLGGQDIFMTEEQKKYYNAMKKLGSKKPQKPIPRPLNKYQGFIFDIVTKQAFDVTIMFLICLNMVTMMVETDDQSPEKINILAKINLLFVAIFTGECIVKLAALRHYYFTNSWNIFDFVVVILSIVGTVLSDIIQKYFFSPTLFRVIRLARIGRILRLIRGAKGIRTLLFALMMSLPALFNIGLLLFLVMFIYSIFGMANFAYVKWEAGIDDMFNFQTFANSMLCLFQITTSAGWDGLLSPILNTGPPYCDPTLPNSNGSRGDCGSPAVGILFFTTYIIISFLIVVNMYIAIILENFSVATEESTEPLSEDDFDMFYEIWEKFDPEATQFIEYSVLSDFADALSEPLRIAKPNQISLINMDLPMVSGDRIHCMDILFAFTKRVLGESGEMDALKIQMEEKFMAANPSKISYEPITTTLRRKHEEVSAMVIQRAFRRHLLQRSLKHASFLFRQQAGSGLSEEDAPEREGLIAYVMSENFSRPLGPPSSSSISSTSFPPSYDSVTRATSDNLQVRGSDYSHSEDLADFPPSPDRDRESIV
Sequence of wild-type human cardiac sodium channel, hNaV 1.5 (Peak INa) (Q14524 whole entry): as above

In the case of `Cc1ccnc(CN2Cc3cc(-c4ccc(OC(F)(F)F)cc4)ccc3OC2=O)n1` [Example 29, 3-((4-methylpyrimidin-2-yl)methyl)-6-(4-(trifluoromethoxy)phenyl)-3,4-dihydro-2H-benzo[e][1,3]oxazin-2-one], the inhibition at 1 µM in assay [1] was found to be 61.6%. Moreover, the inhibition at 3 µM in assay [2] (setting [3]) turned out to be 14.1%; in assay [2] (setting [4]) it was 36.1%.

Turning to `Cc1ccnc(CN2Cc3cc(-c4ccc(C(F)(F)F)cc4)ccc3OC2=O)n1` [Example 30, 3-((4-methylpyrimidin-2-yl)methyl)-6-(4-(trifluoromethyl)phenyl)-3,4-dihydro-2H-benzo[e][1,3]oxazin-2-one], the inhibition at 1 µM in assay [1] worked out at 54.5%. The inhibition at 3 µM in assay [2] (setting [3]) amounted to 13.2%; in assay [2] (setting [4]), 36.5%.

With `COc1cc(OC(F)(F)F)ccc1-c1ccc2c(c1)CN(Cc1nccc(C)n1)C(=O)O2` [Example 31, 6-(2-methoxy-4-(trifluoromethoxy)phenyl)-3-((4-methylpyrimidin-2-yl)methyl)-3,4-dihydro-2H-benzo[e][1,3]oxazin-2-one], the inhibition at 1 µM in assay [1] came out at 34.4%. Moreover, the inhibition at 3 µM was under 5% in assay [2] (setting [3]) and 12.2% in assay [2] (setting [4]).

On to `Cc1ccnc(CN2Cc3cc(-c4ccc(OC(F)(F)F)cc4F)ccc3OC2=O)n1` [Example 32, 6-(2-fluoro-4-(trifluoromethoxy)phenyl)-3-((4-methylpyrimidin-2-yl)methyl)-3,4-dihydro-2H-benzo[e][1,3]oxazin-2-one], for which the inhibition at 1 µM in assay [1] is 43.4%. For the same compound, the inhibition at 3 µM is under 5% in assay [2] (setting [3]) and 33.1% in assay [2] (setting [4]).

For the compound `Cc1ccnc(CN2Cc3cc(-c4ccc(OC(F)(F)F)cc4C)ccc3OC2=O)n1` [Example 33, 6-(2-methyl-4-(trifluoromethoxy)phenyl)-3-((4-methylpyrimidin-2-yl)methyl)-3,4-dihydro-2H-benzo[e][1,3]oxazin-2-one], the inhibition at 1 µM in assay [1] was determined as 33%. In addition, the inhibition at 3 µM in assay [2] (setting [3]) is under 5%; in assay [2] (setting [4]), 27.8%.

`COc1cc(C(F)(F)F)ccc1-c1ccc2c(c1)CN(Cc1ncccn1)C(=O)O2` [Example 34, 6-(2-methoxy-4-(trifluoromethyl)phenyl)-3-(pyrimidin-2-ylmethyl)-3,4-dihydro-2H-benzo[e][1,3]oxazin-2-one]: in assay [1], the inhibition at 1 µM turned out to be 44.6%. Further, the inhibition at 3 µM in assay [2] (setting [3]) was under 5%; in assay [2] (setting [4]), 27.7%.

For `CCOc1cc(C(F)(F)F)ccc1-c1ccc2c(c1)CN(Cc1ncccn1)C(=O)O2` [Example 35, 6-(2-ethoxy-4-(trifluoromethyl)phenyl)-3-(pyrimidin-2-ylmethyl)-3,4-dihydro-2H-benzo[e][1,3]oxazin-2-one], the inhibition at 1 µM in assay [1] is 49.4%. Further, the inhibition at 3 µM in assay [2] (setting [3]) is 9.7%; in assay [2] (setting [4]), 20.2%.

Consider `O=C1Oc2ccc(-c3ccc(C(F)(F)F)cc3F)cc2CN1Cc1ncccn1` [Example 36, 6-(2-fluoro-4-(trifluoromethyl)phenyl)-3-(pyrimidin-2-ylmethyl)-3,4-dihydro-2H-benzo[e][1,3]oxazin-2-one], for which the inhibition at 1 µM in assay [1] is 43.6%. The results for the inhibition at 3 µM in assay [2] (setting [3]) and in assay [2] (setting [4]) were 5.9% and 11.5%, respectively.

For `Cc1cc(C(F)(F)F)ccc1-c1ccc2c(c1)CN(Cc1ncccn1)C(=O)O2` [Example 37, 6-(2-methyl-4-(trifluoromethyl)phenyl)-3-(pyrimidin-2-ylmethyl)-3,4-dihydro-2H-benzo[e][1,3]oxazin-2-one], the inhibition at 1 µM in assay [1] is 41.1%. For the same compound, the inhibition at 3 µM is under 5% in assay [2] (setting [3]) and 14% in assay [2] (setting [4]).

As for `O=C1Oc2ccc(-c3ccc(C4(C(F)(F)F)CC4)cc3)cc2CN1Cc1ncccn1` [Example 38, 3-(pyrimidin-2-ylmethyl)-6-(4-(1-(trifluoromethyl)cyclopropyl)phenyl)-3,4-dihydro-2H-benzo[e][1,3]oxazin-2-one], the inhibition at 1 µM in assay [1] turned out to be 54.2%. Moreover, the inhibition at 3 µM in assay [2] (setting [3]) is under 5%; in assay [2] (setting [4]), 55.6%.

As to `CC(C)Oc1cc(OC(F)(F)F)ccc1-c1ccc2c(c1)CN(Cc1ncccn1)C(=O)O2` [Example 39, 6-(2-isopropoxy-4-(trifluoromethoxy)phenyl)-3-(pyrimidin-2-ylmethyl)-3,4-dihydro-2H-benzo[e][1,3]oxazin-2-one], the inhibition at 1 µM in assay [1] stood at 33.7%. Also, the inhibition at 3 µM stood at 5.9% in assay [2] (setting [3]) and 17.5% in assay [2] (setting [4]).

As for `CCOc1cc(OC(F)(F)F)ccc1-c1ccc2c(c1)CN(Cc1ncccn1)C(=O)O2` [Example 40, 6-(2-ethoxy-4-(trifluoromethoxy)phenyl)-3-(pyrimidin-2-ylmethyl)-3,4-dihydro-2H-benzo[e][1,3]oxazin-2-one], the inhibition at 1 µM in assay [1] was determined as 49.4%. The results for the inhibition at 3 µM in assay [2] (setting [3]) and in assay [2] (setting [4]) were 10.2% and 22.4%, respectively.

Consider `Cc1cnc(CN2Cc3cc(-c4ccc(C(F)(F)F)cc4F)ccc3OC2=O)nc1` [Example 41, 6-(2-fluoro-4-(trifluoromethyl)phenyl)-3-((5-methylpyrimidin-2-yl)methyl)-3,4-dihydro-2H-benzo[e][1,3]oxazin-2-one], for which the inhibition at 1 µM in assay [1] is 45.7%. Also, the inhibition at 3 µM in assay [2] (setting [3]) is under 5%; in assay [2] (setting [4]) it was 17.5%.

Turning to `COc1cc(C(F)(F)F)ccc1-c1ccc2c(c1)CN(Cc1ncc(C)cn1)C(=O)O2` [Example 42, 6-(2-methoxy-4-(trifluoromethyl)phenyl)-3-((5-methylpyrimidin-2-yl)methyl)-3,4-dihydro-2H-benzo[e][1,3]oxazin-2-one], the inhibition at 1 µM in assay [1] was 42.7%. The results for the inhibition at 3 µM in assay [2] (setting [3]) and in assay [2] (setting [4]) were under 5% and 12.7%, respectively.

With `Cc1cnc(CN2Cc3cc(-c4ccc(C(F)(F)F)cc4C)ccc3OC2=O)nc1` [Example 43, 6-(2-methyl-4-(trifluoromethyl)phenyl)-3-((5-methylpyrimidin-2-yl)methyl)-3,4-dihydro-2H-benzo[e][1,3]oxazin-2-one], the inhibition at 1 µM in assay [1] was 37.9%. Besides, the inhibition at 3 µM is under 5% in assay [2] (setting [3]) and 19.2% in assay [2] (setting [4]).

As to `COc1cc(C(F)(F)F)ccc1-c1ccc2c(c1)CN(Cc1cccc(C)n1)C(=O)O2` [Example 44, 6-(2-methoxy-4-(trifluoromethyl)phenyl)-3-((6-methylpyridin-2-yl)methyl)-3,4-dihydro-2H-benzo[e][1,3]oxazin-2-one], the inhibition at 1 µM in assay [1] was found to be 44.8%. The inhibition at 3 µM was under 5% in assay [2] (setting [3]) and 21.6% in assay [2] (setting [4]).

Turning to `Cc1cccc(CN2Cc3cc(-c4ccc(C(F)(F)F)cc4F)ccc3OC2=O)n1` [Example 45, 6-(2-fluoro-4-(trifluoromethyl)phenyl)-3-((6-methylpyridin-2-yl)methyl)-3,4-dihydro-2H-benzo[e][1,3]oxazin-2-one], the inhibition at 1 µM in assay [1] is 53.6%. Moreover, the inhibition at 3 µM is under 5% in assay [2] (setting [3]) and 33.5% in assay [2] (setting [4]).

For the compound `COc1cc(OC(F)(F)F)ccc1-c1ccc2c(c1)CN(Cc1cccc(C)n1)C(=O)O2` [Example 46, 6-(2-methoxy-4-(trifluoromethoxy)phenyl)-3-((6-methylpyridin-2-yl)methyl)-3,4-dihydro-2H-benzo[e][1,3]oxazin-2-one], the inhibition at 1 µM in assay [1] is 51.3%. Further, the inhibition at 3 µM in assay [2] (setting [3]) is under 5%; in assay [2] (setting [4]) it was 34.7%.

For the compound `Cc1cccc(CN2Cc3cc(-c4ccc(OC(F)(F)F)cc4F)ccc3OC2=O)n1` [Example 47, 6-(2-fluoro-4-(trifluoromethoxy)phenyl)-3-((6-methylpyridin-2-yl)methyl)-3,4-dihydro-2H-benzo[e][1,3]oxazin-2-one], in assay [1], the inhibition at 1 µM was determined as 52.8%. In addition, the results for the inhibition at 3 µM in assay [2] (setting [3]) and in assay [2] (setting [4]) were under 5% and 44.3%, respectively.

Regarding `CC1c2cc(-c3ccc(OC(F)(F)F)cc3)ccc2OC(=O)N1Cc1ncccn1` (centres unmarked) [Example 48, 4-methyl-3-(pyrimidin-2-ylmethyl)-6-(4-(trifluoromethoxy)phenyl)-3,4-dihydro-2H-benzo[e][1,3]oxazin-2-one], in assay [1], the inhibition at 1 µM was 53.2%. Also, in assay [2] (setting [4]), the inhibition at 3 µM amounted to 12.1%.
